Results taken from US20030138500A1 (priority 2001, published 2003).

How the values were obtained:
Format in all cases: in vivo
[1] = system: twospotted spider mites, Tetranychus urticae Koch; experiment: Mortality of adult twospotted spider mites on bush bean leaves after spray treatment; details: two days after treatment, concentration in label
Method: Adult twospotted spider mites, Tetranychus urticae Koch, were obtained from a colony and 25 mites per leaf were placed on bush bean plants (one leaf per replicate). Mites were allowed to settle overnight and then treatments were applied to wetting on top and bottom leaf surfaces using a hand-held trigger sprayer. After treatment, plants were randomized on a lab bench in a randomized block design. Treatments consisted of 9 replicates of 1 plant each. Mortality was assessed 2 days following treatment.
Adult twospotted spider mites, Tetranychus urticae Koch, were obtained from a colony and 25 mites per leaf were placed on bush bean plants (one leaf per replicate). Mites were allowed to settle overnight and then treatments were applied to wetting on top and bottom leaf surfaces using a hand-held trigger sprayer. After treatment, plants were randomized on a lab bench in a randomized block design. Treatments consisted of 10 replicates of 1 plant each. Mortality was assessed 2 days following treatment.

[2] = system: Green peach aphids, Myzus persicae (Sulzer); experiment: Mortality of green peach aphids sprayed on plate glass (60 seconds exposure); details: Example 12, Table 12; after 1 day; concentration in label
Method: Green peach aphids, Myzus persicae (Sulzer), were obtained from a colony and transferred to plate glass for treatment. Treatments were then applied with a hand-held trigger sprayer to wetting and aphids remained exposed to treatments for 60 seconds. After treatment, aphids were transferred to filter paper lined petri dishes and dishes were randomized on a lab bench in a completely randomized design. Treatments consisted of 10 replicates of 10 aphids each. Mortality was assessed after 1 day.

[3] = system: green peach aphid, Myzus persicae (Sulzer); experiment: Mortality of green peach aphids on infested radish plants after spray treatment; details: Example 4, Table 4, after 2 days, concentration in label
Method: Radish plants were placed in a colony for 4 days for infestation with green peach aphid, Myzus persicae (Sulzer). Treatments were then applied with a hand-held trigger sprayer to wetting on all leaf surfaces. After treatment, plants were randomized on a lab bench in a completely randomized block design. Treatments consisted of 8 replicates of 1 plant each. Mortality was assessed after 2 days by counting the live and dead aphids on all leaves.

Row | SMILES | Observed % Mortality ([1]; Example 11, Table 11, adult female mites on bush bean) | Observed % Mortality [2] | Observed % Mortality ([1]; Example 2, Table 2, adult female mites on bush bean) | Observed % Mortality ([1]; Example 3, Table 3, mites on bush bean) | Observed % Mortality [3]
1 | CC1(C)C(C=C(Cl)Cl)C1C(=O)OCc1cccc(Oc2ccccc2)c1 (centres unmarked) [Permethrin] | 26.2% | 84.0% | – | – | –
2 | S1SSSSSSS1 [Powdered Sulfur (0.2% ai sulfur), Sulfur] | – | – | 4.5% | 2.6% | 1.3%
